According to ChEMBL document CHEMBL3046257, “Response of sweet maize (Zea mays L.) hybrids to halosulfuron” (Crop Prot, 2008):

Assays:
Type in all cases: organism-based
Zea mays [1] = assay: Toxicity in Zea mays GG214 (maize) assessed as marketable yield at 50 g ai/ha applied shortly post-emergence at three to five-leaf stage using backpack sprayer (reference value: 14.2 T/ha ); conditions: in vivo, other
Zea mays [2] = assay: Toxicity in Zea mays GSS9299 (maize) assessed as cob size at 25 g ai/ha applied shortly post-emergence at three to five-leaf stage using backpack sprayer (reference value: 292 g); conditions: in vivo, other
Zea mays [3] = assay: Toxicity in Zea mays GH2547 (maize) assessed as visible injury at 25 g ai/ha applied shortly post-emergence at three to five-leaf stage using backpack sprayer measured after 7 days; conditions: in vivo, other, 168 h
Zea mays [4] = assay: Toxicity in Zea mays GH2547 (maize) assessed as plant height at 25 g ai/ha applied shortly post-emergence at three to five-leaf stage using backpack sprayer measured after 21 days (Rvb =80 cm); conditions: in vivo, other, 504 h
Zea mays [5] = assay: Toxicity in Zea mays Empire (maize) assessed as visible injury at 25 g ai/ha applied shortly post-emergence at three to five-leaf stage using backpack sprayer measured after 7 days; conditions: in vivo, other, 168 h
Zea mays [6] = assay: Toxicity in Zea mays GG446 (maize) assessed as visible injury at 50 g ai/ha applied shortly post-emergence at three to five-leaf stage using backpack sprayer measured after 28 days; conditions: in vivo, other, 672 h
Zea mays [7] = assay: Toxicity in Zea mays GH2547 (maize) assessed as marketable yield at 25 g ai/ha applied shortly post-emergence at three to five-leaf stage using backpack sprayer (reference value: 16.7 T/ha ); conditions: in vivo, other
Zea mays [8] = assay: Toxicity in Zea mays GG214 (maize) assessed as visible injury at 25 g ai/ha applied shortly post-emergence at three to five-leaf stage using backpack sprayer measured after 7 days; conditions: in vivo, other, 168 h
Zea mays [9] = assay: Toxicity in Zea mays GSS9299 (maize) assessed as visible injury at 25 g ai/ha applied shortly post-emergence at three to five-leaf stage using backpack sprayer measured after 14 days; conditions: in vivo, other, 336 h
Zea mays [10] = assay: Toxicity in Zea mays GSS9299 (maize) assessed as plant height at 50 g ai/ha applied shortly post-emergence at three to five-leaf stage using backpack sprayer measured after 21 days (Rvb =69 cm); conditions: in vivo, other, 504 h
Zea mays [11] = assay: Toxicity in Zea mays GH2041 (maize) assessed as visible injury at 50 g ai/ha applied shortly post-emergence at three to five-leaf stage using backpack sprayer measured after 14 days; conditions: in vivo, other, 336 h
Zea mays [12] = assay: Toxicity in Zea mays Empire (maize) assessed as plant height at 50 g ai/ha applied shortly post-emergence at three to five-leaf stage using backpack sprayer measured after 21 days (Rvb =73 cm); conditions: in vivo, other, 504 h
Zea mays [13] = assay: Toxicity in Zea mays GH2298 (maize) assessed as visible injury at 50 g ai/ha applied shortly post-emergence at three to five-leaf stage using backpack sprayer measured after 7 days; conditions: in vivo, other, 168 h
Zea mays [14] = assay: Toxicity in Zea mays GG214 (maize) assessed as visible injury at 50 g ai/ha applied shortly post-emergence at three to five-leaf stage using backpack sprayer measured after 7 days; conditions: in vivo, other, 168 h
Zea mays [15] = assay: Toxicity in Zea mays GG214 (maize) assessed as visible injury at 50 g ai/ha applied shortly post-emergence at three to five-leaf stage using backpack sprayer measured after 28 days; conditions: in vivo, other, 672 h
Zea mays [16] = assay: Toxicity in Zea mays GG446 (maize) assessed as marketable yield at 50 g ai/ha applied shortly post-emergence at three to five-leaf stage using backpack sprayer (reference value: 20.0 T/ha ); conditions: in vivo, other
Zea mays [17] = assay: Toxicity in Zea mays GG446 (maize) assessed as cob size at 50 g ai/ha applied shortly post-emergence at three to five-leaf stage using backpack sprayer (reference value: 379 g); conditions: in vivo, other
Zea mays [18] = assay: Toxicity in Zea mays GSS9299 (maize) assessed as visible injury at 25 g ai/ha applied shortly post-emergence at three to five-leaf stage using backpack sprayer measured after 28 days; conditions: in vivo, other, 672 h
Zea mays [19] = assay: Toxicity in Zea mays GSS9299 (maize) assessed as cob size at 50 g ai/ha applied shortly post-emergence at three to five-leaf stage using backpack sprayer (reference value: 292 g); conditions: in vivo, other
Zea mays [20] = assay: Toxicity in Zea mays GH2684 (maize) assessed as marketable yield at 50 g ai/ha applied shortly post-emergence at three to five-leaf stage using backpack sprayer (reference value: 15.5 T/ha ); conditions: in vivo, other
Zea mays [21] = assay: Toxicity in Zea mays GH2684 (maize) assessed as visible injury at 50 g ai/ha applied shortly post-emergence at three to five-leaf stage using backpack sprayer measured after 28 days; conditions: in vivo, other, 672 h
Zea mays [22] = assay: Toxicity in Zea mays GH2298 (maize) assessed as visible injury at 50 g ai/ha applied shortly post-emergence at three to five-leaf stage using backpack sprayer measured after 14 days; conditions: in vivo, other, 336 h
Zea mays [23] = assay: Toxicity in Zea mays GH2547 (maize) assessed as marketable yield at 50 g ai/ha applied shortly post-emergence at three to five-leaf stage using backpack sprayer (reference value: 16.7 T/ha ); conditions: in vivo, other
Zea mays [24] = assay: Toxicity in Zea mays GG446 (maize) assessed as visible injury at 25 g ai/ha applied shortly post-emergence at three to five-leaf stage using backpack sprayer measured after 7 days; conditions: in vivo, other, 168 h
Zea mays [25] = assay: Toxicity in Zea mays GSS9299 (maize) assessed as marketable yield at 50 g ai/ha applied shortly post-emergence at three to five-leaf stage using backpack sprayer (reference value: 13.2 T/ha ); conditions: in vivo, other
Zea mays [26] = assay: Toxicity in Zea mays GH2547 (maize) assessed as visible injury at 25 g ai/ha applied shortly post-emergence at three to five-leaf stage using backpack sprayer measured after 14 days; conditions: in vivo, other, 336 h
Zea mays [27] = assay: Toxicity in Zea mays GSS9299 (maize) assessed as plant height at 25 g ai/ha applied shortly post-emergence at three to five-leaf stage using backpack sprayer measured after 21 days (Rvb =69 cm); conditions: in vivo, other, 504 h
Zea mays [28] = assay: Toxicity in Zea mays GH2547 (maize) assessed as visible injury at 50 g ai/ha applied shortly post-emergence at three to five-leaf stage using backpack sprayer measured after 7 days; conditions: in vivo, other, 168 h
Zea mays [29] = assay: Toxicity in Zea mays GG214 (maize) assessed as visible injury at 50 g ai/ha applied shortly post-emergence at three to five-leaf stage using backpack sprayer measured after 14 days; conditions: in vivo, other, 336 h
Zea mays [30] = assay: Toxicity in Zea mays GH2684 (maize) assessed as visible injury at 50 g ai/ha applied shortly post-emergence at three to five-leaf stage using backpack sprayer measured after 7 days; conditions: in vivo, other, 168 h
Zea mays [31] = assay: Toxicity in Zea mays GH2041 (maize) assessed as marketable yield at 50 g ai/ha applied shortly post-emergence at three to five-leaf stage using backpack sprayer (reference value: 12.2 T/ha ); conditions: in vivo, other
Zea mays [32] = assay: Toxicity in Zea mays GH2298 (maize) assessed as cob size at 50 g ai/ha applied shortly post-emergence at three to five-leaf stage using backpack sprayer (reference value: 307 g); conditions: in vivo, other
Zea mays [33] = assay: Toxicity in Zea mays GG214 (maize) assessed as plant height at 25 g ai/ha applied shortly post-emergence at three to five-leaf stage using backpack sprayer measured after 21 days (Rvb =81 cm); conditions: in vivo, other, 504 h

Work on `COc1cc(OC)nc(NC(=O)NS(=O)(=O)c2c(C(=O)O)c(Cl)nn2C)n1` [HALOSULFURON] yielded a Crop_yield (Zea mays [1]) of 13.3 tons/ha, an Activity (Zea mays [2]) of 301 g and an Activity (Zea mays [3]) of 1%. The Activity (Zea mays [4]) was 78 cm, the Activity (Zea mays [5]) was 4% and the Activity (Zea mays [6]) was 0%. The Crop_yield (Zea mays [7]) was 16.2 tons/ha, the Activity (Zea mays [8]) was 1% and the Activity (Zea mays [9]) was 2%. For the same molecule, the Activity (Zea mays [10]) was 68 cm, the Activity (Zea mays [11]) was 2% and the Activity (Zea mays [12]) was 69 cm. It also gave an Activity (Zea mays [13]) of 6%, an Activity (Zea mays [14]) of 3% and an Activity (Zea mays [15]) of 1%. For the same molecule, the Crop_yield (Zea mays [16]) was 19.6 tons/ha, the Activity (Zea mays [17]) was 387 g and the Activity (Zea mays [18]) was 0%. It also gave an Activity (Zea mays [19]) of 297 g, a Crop_yield (Zea mays [20]) of 15.2 tons/ha and an Activity (Zea mays [21]) of 1%. It also gave an Activity (Zea mays [22]) of 4%, a Crop_yield (Zea mays [23]) of 15.7 tons/ha and an Activity (Zea mays [24]) of 0%. For the same molecule, the Crop_yield (Zea mays [25]) was 12.8 tons/ha, the Activity (Zea mays [26]) was 0% and the Activity (Zea mays [27]) was 68 cm. The Activity (Zea mays [28]) was 2%, the Activity (Zea mays [29]) was 1% and the Activity (Zea mays [30]) was 7%. It also gave a Crop_yield (Zea mays [31]) of 11.3 tons/ha, an Activity (Zea mays [32]) of 308 g and an Activity (Zea mays [33]) of 77 cm.
